Source: PMC8213057, “Targeting ALK2: An Open Science Approach to Developing Therapeutics for the Treatment of Diffuse Intrinsic Pontine Glioma” (Journal of Medicinal Chemistry, 2020)

Columns and labels:
[1] = molecular target: RON/MST1R (Homo sapiens, UniProt Q04912); assay: biochemical; settings: read-out: % enzyme activity, 1 μM; Run 1, Run 2
[2] = molecular target: CK2a2 (Homo sapiens, UniProt P19784); assay: biochemical; settings: read-out: % enzyme activity, 1 μM; Run 1, Run 2
[3] = molecular target: T1, TAOK2/TAO1 (Homo sapiens, UniProt Q9UL54); settings: 1 μM; Run 1, Run 2
T1 sequence (Q9UL54 1-1235): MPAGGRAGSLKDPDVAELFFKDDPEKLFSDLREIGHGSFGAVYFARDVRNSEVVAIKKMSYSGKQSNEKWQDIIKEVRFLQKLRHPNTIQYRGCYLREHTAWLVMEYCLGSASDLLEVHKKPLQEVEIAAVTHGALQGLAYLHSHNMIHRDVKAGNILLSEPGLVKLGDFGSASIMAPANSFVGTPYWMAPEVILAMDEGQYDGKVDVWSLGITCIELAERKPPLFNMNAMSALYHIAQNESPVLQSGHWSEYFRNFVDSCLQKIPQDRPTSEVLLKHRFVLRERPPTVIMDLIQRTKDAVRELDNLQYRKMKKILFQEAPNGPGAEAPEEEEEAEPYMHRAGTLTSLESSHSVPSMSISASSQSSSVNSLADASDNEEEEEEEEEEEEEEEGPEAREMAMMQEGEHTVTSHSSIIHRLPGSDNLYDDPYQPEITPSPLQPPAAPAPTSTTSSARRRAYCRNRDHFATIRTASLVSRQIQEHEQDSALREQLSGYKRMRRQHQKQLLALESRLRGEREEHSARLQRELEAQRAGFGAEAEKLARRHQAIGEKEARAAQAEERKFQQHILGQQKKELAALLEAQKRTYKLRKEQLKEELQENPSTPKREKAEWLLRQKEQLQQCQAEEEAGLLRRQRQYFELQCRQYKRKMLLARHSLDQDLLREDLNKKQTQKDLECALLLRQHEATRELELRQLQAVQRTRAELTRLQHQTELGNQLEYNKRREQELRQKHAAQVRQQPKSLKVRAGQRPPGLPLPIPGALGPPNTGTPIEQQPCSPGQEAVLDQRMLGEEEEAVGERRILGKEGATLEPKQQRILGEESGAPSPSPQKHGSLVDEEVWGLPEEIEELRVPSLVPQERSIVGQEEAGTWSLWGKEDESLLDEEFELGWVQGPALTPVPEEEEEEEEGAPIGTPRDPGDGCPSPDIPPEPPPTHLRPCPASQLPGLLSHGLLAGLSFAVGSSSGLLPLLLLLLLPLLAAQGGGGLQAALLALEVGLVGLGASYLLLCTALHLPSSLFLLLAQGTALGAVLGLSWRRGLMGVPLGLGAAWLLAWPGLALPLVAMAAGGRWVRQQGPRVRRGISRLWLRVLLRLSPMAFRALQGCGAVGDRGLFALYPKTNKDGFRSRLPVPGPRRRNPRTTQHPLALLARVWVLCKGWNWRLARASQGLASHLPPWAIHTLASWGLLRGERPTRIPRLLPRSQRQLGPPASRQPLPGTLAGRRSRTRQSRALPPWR

[4] = molecular target: PASK (Homo sapiens, UniProt Q96RG2); assay: biochemical; settings: read-out: % enzyme activity, 1 μM; Run 1, Run 2
[5] = molecular target: PKCd (Homo sapiens, UniProt Q05655); settings: 1 μM; Run 1, Run 2
[6] = molecular target: T2, PLK4/SAK (Homo sapiens, UniProt O00444); assay: biochemical; settings: read-out: % enzyme activity, 1 μM; Run 1, Run 2
T2 sequence (O00444 1-970): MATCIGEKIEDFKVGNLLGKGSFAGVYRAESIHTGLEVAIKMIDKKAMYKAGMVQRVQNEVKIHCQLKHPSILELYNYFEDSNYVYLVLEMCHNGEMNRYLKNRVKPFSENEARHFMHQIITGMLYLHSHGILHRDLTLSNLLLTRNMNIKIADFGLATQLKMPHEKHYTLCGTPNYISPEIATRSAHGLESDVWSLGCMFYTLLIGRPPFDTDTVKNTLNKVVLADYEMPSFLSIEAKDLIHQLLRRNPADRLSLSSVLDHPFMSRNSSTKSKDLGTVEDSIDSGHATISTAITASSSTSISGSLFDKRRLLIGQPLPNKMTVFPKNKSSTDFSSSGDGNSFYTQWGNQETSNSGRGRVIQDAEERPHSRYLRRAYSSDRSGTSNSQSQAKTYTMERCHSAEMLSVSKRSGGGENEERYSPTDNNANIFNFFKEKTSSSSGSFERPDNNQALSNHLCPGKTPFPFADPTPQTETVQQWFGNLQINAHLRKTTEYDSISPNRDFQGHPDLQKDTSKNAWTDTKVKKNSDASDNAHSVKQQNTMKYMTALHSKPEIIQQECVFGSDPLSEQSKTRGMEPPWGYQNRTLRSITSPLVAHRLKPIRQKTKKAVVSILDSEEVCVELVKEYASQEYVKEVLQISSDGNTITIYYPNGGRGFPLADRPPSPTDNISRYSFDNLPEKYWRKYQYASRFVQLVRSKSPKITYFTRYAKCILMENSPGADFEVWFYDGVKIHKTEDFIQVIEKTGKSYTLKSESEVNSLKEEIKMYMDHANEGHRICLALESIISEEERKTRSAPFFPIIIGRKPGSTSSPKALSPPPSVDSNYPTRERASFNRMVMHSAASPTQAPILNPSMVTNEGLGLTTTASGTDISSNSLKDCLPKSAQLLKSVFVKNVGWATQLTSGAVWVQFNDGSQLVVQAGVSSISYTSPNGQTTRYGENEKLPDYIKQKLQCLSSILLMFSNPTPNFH

[7] = molecular target: T3, CHK1 (Homo sapiens, UniProt O14757); assay: biochemical; settings: read-out: % enzyme activity, 1 μM; Run 1, Run 2
T3 sequence (O14757 1-476): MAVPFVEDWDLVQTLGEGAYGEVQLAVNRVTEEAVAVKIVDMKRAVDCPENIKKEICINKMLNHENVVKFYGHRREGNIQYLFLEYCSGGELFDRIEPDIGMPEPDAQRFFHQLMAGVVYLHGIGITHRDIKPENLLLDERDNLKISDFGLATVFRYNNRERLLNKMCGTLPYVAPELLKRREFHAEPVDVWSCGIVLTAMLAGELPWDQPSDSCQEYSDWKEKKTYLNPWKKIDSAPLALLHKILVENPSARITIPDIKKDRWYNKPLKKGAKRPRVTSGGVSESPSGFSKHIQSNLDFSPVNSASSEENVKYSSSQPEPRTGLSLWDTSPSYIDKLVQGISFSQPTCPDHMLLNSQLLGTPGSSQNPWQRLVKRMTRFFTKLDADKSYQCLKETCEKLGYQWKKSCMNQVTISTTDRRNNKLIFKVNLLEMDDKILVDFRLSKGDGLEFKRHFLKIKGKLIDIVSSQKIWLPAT

[8] = molecular target: EPHA4 (Homo sapiens, UniProt P54764); settings: 1 μM; Run 1, Run 2
Chain of EPHA4 (P54764 20-986): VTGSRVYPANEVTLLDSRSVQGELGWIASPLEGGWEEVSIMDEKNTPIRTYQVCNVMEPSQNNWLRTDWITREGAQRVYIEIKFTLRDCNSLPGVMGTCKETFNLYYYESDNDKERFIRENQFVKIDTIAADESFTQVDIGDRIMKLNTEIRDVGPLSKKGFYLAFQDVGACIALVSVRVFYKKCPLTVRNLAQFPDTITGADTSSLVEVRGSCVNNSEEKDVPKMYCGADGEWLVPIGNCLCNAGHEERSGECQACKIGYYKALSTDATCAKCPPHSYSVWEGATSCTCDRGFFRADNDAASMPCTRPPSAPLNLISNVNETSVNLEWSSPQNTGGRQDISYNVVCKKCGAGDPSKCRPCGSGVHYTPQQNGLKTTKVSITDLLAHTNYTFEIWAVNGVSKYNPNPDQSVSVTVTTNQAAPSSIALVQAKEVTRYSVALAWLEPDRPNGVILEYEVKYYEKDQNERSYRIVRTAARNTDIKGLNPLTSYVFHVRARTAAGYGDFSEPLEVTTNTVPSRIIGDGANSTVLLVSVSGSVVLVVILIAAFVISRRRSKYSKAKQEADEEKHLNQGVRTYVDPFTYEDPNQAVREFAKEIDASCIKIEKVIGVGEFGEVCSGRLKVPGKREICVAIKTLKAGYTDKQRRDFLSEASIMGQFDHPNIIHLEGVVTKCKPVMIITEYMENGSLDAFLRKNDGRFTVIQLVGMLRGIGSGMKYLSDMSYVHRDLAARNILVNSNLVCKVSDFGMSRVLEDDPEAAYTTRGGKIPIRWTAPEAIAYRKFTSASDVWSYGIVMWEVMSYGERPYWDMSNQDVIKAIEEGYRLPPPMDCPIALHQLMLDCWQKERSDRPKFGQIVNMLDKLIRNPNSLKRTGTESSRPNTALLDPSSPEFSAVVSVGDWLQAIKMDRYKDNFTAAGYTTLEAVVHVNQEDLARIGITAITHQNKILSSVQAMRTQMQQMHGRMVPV

Chain of PKCd (Q05655 whole entry): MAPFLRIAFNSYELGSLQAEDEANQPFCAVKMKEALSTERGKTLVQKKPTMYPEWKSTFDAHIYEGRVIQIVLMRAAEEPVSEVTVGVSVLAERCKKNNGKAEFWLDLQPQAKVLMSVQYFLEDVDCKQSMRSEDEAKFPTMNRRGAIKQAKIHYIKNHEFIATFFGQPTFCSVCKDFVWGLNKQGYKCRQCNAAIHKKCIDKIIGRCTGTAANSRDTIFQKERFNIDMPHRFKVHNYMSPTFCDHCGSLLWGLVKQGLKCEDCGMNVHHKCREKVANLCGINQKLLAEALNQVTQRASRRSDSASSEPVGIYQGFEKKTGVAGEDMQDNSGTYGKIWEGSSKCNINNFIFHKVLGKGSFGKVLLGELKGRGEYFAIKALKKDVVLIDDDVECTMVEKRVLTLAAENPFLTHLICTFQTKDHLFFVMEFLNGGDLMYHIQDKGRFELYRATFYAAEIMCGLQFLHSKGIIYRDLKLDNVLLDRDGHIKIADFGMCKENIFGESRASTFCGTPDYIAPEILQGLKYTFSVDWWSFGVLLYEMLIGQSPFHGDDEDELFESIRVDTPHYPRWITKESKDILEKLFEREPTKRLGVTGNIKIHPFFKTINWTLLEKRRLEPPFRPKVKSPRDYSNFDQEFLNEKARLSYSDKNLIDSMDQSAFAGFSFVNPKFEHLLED
Chain of RON/MST1R (Q04912 25-1400): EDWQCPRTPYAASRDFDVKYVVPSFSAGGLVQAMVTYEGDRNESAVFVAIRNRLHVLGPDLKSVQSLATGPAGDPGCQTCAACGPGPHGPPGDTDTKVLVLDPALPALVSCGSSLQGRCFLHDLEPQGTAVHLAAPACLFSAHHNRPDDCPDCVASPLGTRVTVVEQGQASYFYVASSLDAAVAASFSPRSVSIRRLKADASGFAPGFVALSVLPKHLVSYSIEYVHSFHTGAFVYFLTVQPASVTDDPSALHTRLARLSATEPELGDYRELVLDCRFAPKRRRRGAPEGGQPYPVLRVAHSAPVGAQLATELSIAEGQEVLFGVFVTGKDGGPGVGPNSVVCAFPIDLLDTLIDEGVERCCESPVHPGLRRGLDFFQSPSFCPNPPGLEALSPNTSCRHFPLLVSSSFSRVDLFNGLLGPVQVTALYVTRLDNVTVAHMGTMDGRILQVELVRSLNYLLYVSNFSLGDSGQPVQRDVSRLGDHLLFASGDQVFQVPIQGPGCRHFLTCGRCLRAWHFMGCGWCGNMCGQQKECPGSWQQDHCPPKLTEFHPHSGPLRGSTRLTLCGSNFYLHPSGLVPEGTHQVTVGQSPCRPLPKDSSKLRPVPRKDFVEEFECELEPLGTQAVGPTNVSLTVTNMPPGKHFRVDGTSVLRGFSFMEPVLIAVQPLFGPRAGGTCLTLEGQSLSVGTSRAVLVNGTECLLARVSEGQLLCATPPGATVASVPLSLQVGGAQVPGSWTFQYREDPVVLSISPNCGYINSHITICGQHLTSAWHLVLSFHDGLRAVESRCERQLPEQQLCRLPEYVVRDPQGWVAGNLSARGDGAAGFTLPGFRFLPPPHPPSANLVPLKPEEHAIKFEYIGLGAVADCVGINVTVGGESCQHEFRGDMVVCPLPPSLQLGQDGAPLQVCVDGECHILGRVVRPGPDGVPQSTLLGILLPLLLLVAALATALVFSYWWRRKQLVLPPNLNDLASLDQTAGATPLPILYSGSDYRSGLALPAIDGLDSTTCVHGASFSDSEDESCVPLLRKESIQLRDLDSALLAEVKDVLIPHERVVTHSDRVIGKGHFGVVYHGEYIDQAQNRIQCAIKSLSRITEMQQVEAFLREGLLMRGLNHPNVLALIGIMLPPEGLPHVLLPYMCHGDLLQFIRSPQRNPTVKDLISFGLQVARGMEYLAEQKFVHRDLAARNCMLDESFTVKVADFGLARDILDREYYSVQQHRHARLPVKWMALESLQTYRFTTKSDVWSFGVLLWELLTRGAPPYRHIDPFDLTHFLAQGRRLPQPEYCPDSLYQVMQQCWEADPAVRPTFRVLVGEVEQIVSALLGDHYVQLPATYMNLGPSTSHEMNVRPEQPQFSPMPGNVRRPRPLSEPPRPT
Chain of PASK (Q96RG2 whole entry): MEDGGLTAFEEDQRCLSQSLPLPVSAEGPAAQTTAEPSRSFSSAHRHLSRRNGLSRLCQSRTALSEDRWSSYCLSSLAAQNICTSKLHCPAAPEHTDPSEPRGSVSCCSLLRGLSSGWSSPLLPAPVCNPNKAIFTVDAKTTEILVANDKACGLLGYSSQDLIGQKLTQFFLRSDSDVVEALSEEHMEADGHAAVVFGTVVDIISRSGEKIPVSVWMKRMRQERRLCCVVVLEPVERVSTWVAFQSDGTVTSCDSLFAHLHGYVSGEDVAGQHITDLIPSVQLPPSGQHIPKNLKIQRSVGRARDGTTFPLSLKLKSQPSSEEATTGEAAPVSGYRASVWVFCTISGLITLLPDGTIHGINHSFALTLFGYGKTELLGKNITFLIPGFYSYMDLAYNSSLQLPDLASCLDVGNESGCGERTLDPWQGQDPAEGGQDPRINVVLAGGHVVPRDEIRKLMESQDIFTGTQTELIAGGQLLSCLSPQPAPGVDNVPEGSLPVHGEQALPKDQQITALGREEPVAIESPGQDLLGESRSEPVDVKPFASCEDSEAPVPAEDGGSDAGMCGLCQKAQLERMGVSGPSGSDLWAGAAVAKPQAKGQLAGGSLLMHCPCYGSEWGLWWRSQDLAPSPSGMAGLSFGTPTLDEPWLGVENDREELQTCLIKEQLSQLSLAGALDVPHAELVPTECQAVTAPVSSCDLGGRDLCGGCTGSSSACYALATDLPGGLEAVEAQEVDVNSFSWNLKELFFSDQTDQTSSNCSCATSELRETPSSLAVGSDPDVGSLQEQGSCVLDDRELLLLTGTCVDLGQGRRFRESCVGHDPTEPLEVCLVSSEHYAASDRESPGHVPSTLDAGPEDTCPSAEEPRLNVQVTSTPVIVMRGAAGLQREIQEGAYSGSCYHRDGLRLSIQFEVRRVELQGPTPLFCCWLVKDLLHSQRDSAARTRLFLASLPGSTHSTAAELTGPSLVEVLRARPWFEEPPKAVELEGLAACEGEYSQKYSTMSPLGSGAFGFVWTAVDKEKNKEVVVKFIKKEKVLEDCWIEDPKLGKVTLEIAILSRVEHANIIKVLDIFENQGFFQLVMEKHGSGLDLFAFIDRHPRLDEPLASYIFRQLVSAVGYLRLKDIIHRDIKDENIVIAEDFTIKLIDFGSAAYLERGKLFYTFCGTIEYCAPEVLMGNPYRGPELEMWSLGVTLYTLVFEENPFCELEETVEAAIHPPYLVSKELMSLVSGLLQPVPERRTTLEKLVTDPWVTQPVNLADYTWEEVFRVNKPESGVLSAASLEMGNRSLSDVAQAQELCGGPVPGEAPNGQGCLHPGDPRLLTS
Chain of CK2a2 (P19784 whole entry): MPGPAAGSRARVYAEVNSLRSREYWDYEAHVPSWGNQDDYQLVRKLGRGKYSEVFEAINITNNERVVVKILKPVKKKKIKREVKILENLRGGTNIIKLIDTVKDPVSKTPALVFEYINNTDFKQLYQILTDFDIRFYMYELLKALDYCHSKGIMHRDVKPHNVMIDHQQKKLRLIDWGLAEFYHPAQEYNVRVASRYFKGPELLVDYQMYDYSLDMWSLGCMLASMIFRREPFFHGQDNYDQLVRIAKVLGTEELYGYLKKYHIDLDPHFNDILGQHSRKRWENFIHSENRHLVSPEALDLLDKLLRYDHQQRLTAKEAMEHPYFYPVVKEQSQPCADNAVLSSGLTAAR

Compound | remaining activity at 1 µM [1] | remaining activity at 1 µM [2] | % enzyme activity [3] | remaining activity at 1 µM [4] | % enzyme activity [5] | remaining activity at 1 µM [6] | remaining activity at 1 µM [7] | % enzyme activity [8]
COc1cc(-c2cncc(-c3ccc(N4CCN(C)CC4)cc3)c2C)cc(F)c1C(N)=O [Compound 26a, 2-Fluoro-6-methoxy-4-(4-methyl-5-(4-(4-methylpiperazin-1-yl)phenyl)pyridin-3-yl)benzamide] | 98.7% | 95.3% | 87.58% | 94% | 97.72% | 94.1% | 98.2% | 91.81%
COc1cc(-c2cncc(-c3ccc(N4C[C@@H](C)N(C)[C@@H](C)C4)cc3)c2C)cc(F)c1C(N)=O [Compound 26c, 2-Fluoro-6-methoxy-4-(4-methyl-5-(4-((3R,5S)-3,4,5-trimethylpiperazin-1-yl)phenyl)pyridin-3-yl)benzamide] | 105% | 101% | 99.37% | 99.2% | 100.12% | 98.8% | 117% | 98.76%
